This is an account of results in ChEMBL document CHEMBL6153089, “Design, Synthesis, and Biological Evaluation of Thieno[3,2-d]pyrimidine Derivatives as the First Bifunctional PI3Kδ Isoform Selective/Bromodomain and Extra-Terminal Inhibitors” (J Med Chem, 2025).

For orientation: inhibition means the share of the control response that was lost under treatment. Broadly, the IC50 is the concentration that gives 50% inhibition.

The target of series [1] is T1, Bromodomain-containing protein 4 (Homo sapiens, UniProt O60885). In words: Inhibition of His-tagged BRD4-BD1 (unknown origin) at 10 nM incubated for 30 mins by Alphascreen assay relative to control.
Series [2] concerns the target PI3-kinase p110-delta/p85-alpha (Homo sapiens) (UniProt P27986+O00329). The series can be described thus: Inhibition of p110delta/p85alpha (unknown origin) at 100 nM incubated for 2 hrs in presence of ATP by ADP-kinaseGlo reagent based assay relative to control. Format: protein-complex assay.
The test system of series [3] is SUD4. In words: Antiproliferative against activity human SU-DHL-4 cells assessed as inhibition of cell growth incubated for 72 hrs by Celltiter-luminescence analysis. Format: functional, cell-based. To be noted: SU-DHL-4, 72 h.
Series [4] concerns SU-DHL-6. In words: Antiproliferative against activity human SU-DHL-6 cells assessed as inhibition of cell growth incubated for 72 hrs by Celltiter-luminescence analysis. In kind it is functional, cell-based. Particulars: SU-DHL-6, 72 h; call rule not given here.
The test system of series [5] is SU-DHL-6. The series can be described thus: Antiproliferative against activity human SU-DHL-6 cells assessed as inhibition of cell growth incubated for 72 hrs in presence of 10:1 compound:ABBV-75 by Celltiter-luminescence analysis. In kind it is functional, cell-based. Particulars: SU-DHL-6, 72 h.
Series [6] has as its target PI3-kinase p110-delta/p85-alpha (Homo sapiens, UniProt O00329). The series can be described thus: Inhibition of p110delta/p85alpha (unknown origin) incubated for 2 hrs in presence of ATP by ADP-kinaseGlo reagent based assay. Format: protein-complex assay. (Kinase-Glo measures the ATP left after a reaction by luminescence.)
Series [7] deals with SUD4. In words: Antiproliferative against activity human SU-DHL-4 cells assessed as inhibition of cell growth incubated for 72 hrs in presence of 10:1 compound:ABBV-75 by Celltiter-luminescence analysis. To be noted: SU-DHL-4, 72 h. Format: functional, cell-based.
The nature of series [8]: Toxicity in female BALB/c mouse model xenografted with human SU-DHL-6 cells assessed as effect on heart histopathology at 20 mg/kg, po administered once daily via gavage for 15 days by H and E staining based analysis. To be noted: in vivo, 360 h, time 15 day. In kind it is organism-based. (A xenograft is tissue or cells of one species grown in another, often human tumour cells in immunodeficient mice.)

For series [9], the system named is SU-DHL-6. The series can be described thus: Induction of apoptosis in human SU-DHL-6 cells assessed as viable cells at 1 uM incubated for 24 hrs by Annexin V-FITC/PI staining based flow cytometric analysis (reference value: 61.2 %). Format: functional. Particulars: read-out: Activity. On the technique in general: Flow cytometry measures light scatter and fluorescence of single cells or particles in a stream.

For series [10], the target named is Bromodomain-containing protein 2 (Homo sapiens, UniProt P25440). In words: Inhibition of His-tagged BRD2-BD1 (unknown origin) incubated for 30 mins in presence of ATP by Alphascreen assay.
The test system of series [11] is SUD4. In words: Induction of apoptosis in human SU-DHL-4 cells assessed as early apoptotic cells at 1 uM incubated for 24 hrs by Annexin V-FITC/PI staining based flow cytometric analysis (reference value: 25.3 %). Format: functional.
Series [12] concerns HUVEC. In words: Cytotoxicity against HUVEC cells assessed as inhibition of cell growth at 1 uM incubated for 72 hrs by Celltiter-luminescence analysis. In kind it is toxicity, cell-based. To be noted: human.
In series [13] the target is Bromodomain testis-specific protein (Homo sapiens, UniProt Q58F21). In words: Inhibition of His-tagged BRDT-BD1 (unknown origin) incubated for 30 mins in presence of ATP by Alphascreen assay.
A short description of series [14]: Toxicity in female BALB/c mouse model xenografted with human SU-DHL-6 cells assessed as effect on kidney histopathology at 20 mg/kg, po administered once daily via gavage for 15 days by H and E staining based analysis. Particulars: in vivo, 360 h, time 15 day. In kind it is organism-based.
Series [15] has as its system WI-38. The series can be described thus: Cytotoxicity against human WI-38 cells assessed as inhibition of cell growth at 1 uM incubated for 72 hrs by Celltiter-luminescence analysis. Format: toxicity, cell-based. To be noted: wi-38, 72 h.
Series [16] is described as follows: Toxicity in female BALB/c mouse model xenografted with human SU-DHL-6 cells assessed as effect on body weight at 20 mg/kg, po administered once daily via gavage for 15 days. Format: organism-based. To be noted: in vivo, 360 h, time 15 day.
For series [17], the target named is Serine/threonine-protein kinase mTOR (Homo sapiens, UniProt P42345). The series can be described thus: Inhibition of mTOR (unknown origin) incubated for 2 hrs in presence of ATP by ADP-kinaseGlo reagent based assay.
In series [18] the test system is SU-DHL-6. The series can be described thus: Induction of apoptosis in human SU-DHL-6 cells assessed as late apoptotic cells at 1 uM incubated for 24 hrs by Annexin V-FITC/PI staining based flow cytometric analysis (reference value: 6.43 %). Format: functional.
For series [19], the target named is T1, Bromodomain-containing protein 4. In words: Inhibition of His-tagged BRD4-BD2 (unknown origin) incubated for 30 mins in presence of ATP by Alphascreen assay.
In series [20] the test system is SU-DHL-6. In words: Induction of apoptosis in human SU-DHL-6 cells assessed as necrotic cells at 1 uM incubated for 24 hrs by Annexin V-FITC/PI staining based flow cytometric analysis (reference value: 0.246 %). Format: functional.
Series [21] addresses T1, Bromodomain-containing protein 4. In words: Inhibition of His-tagged BRD4-BD1 (unknown origin) incubated for 30 mins in presence of ATP by Alphascreen assay.
The nature of series [22]: Toxicity in female BALB/c mouse model xenografted with human SU-DHL-6 cells assessed as effect on lung histopathology at 20 mg/kg, po administered once daily via gavage for 15 days by H and E staining based analysis. Format: organism-based. To be noted: in vivo, 360 h, time 15 day.
The subject of series [23] is SUD4. The series can be described thus: Induction of apoptosis in human SU-DHL-4 cells assessed as necrotic cells at 1 uM incubated for 24 hrs by Annexin V-FITC/PI staining based flow cytometric analysis (reference value: 0.642 %). In kind it is functional.
In series [24] the test system is SUD4. The series can be described thus: Induction of apoptosis in human SU-DHL-4 cells assessed as viable cells at 1 uM incubated for 24 hrs by Annexin V-FITC/PI staining based flow cytometric analysis (reference value: 65.2 %). Format: functional. To be noted: read-out: Activity.
Series [25] in a line: Toxicity in female BALB/c mouse model xenografted with human SU-DHL-6 cells assessed as effect on liver histopathology at 20 mg/kg, po administered once daily via gavage for 15 days by H and E staining based analysis. In kind it is organism-based. Particulars: in vivo, 360 h, time 15 day.
Series [26] deals with Phosphatidylinositol 4,5-bisphosphate 3-kinase catalytic subunit gamma isoform (Homo sapiens, UniProt P48736). The series can be described thus: Inhibition of PI3Kgamma (unknown origin) incubated for 2 hrs in presence of ATP by ADP-kinaseGlo reagent based assay.
Series [27] is described as follows: Toxicity in female BALB/c mouse model xenografted with human SU-DHL-6 cells assessed as effect on spleen histopathology at 20 mg/kg, po administered once daily via gavage for 15 days by H and E staining based analysis. In kind it is organism-based. Particulars: in vivo, 360 h, time 15 day.
Series [28] concerns SU-DHL-6. In words: Antitumor activity against human SU-DHL-6 cells xenografted in female BALB/c mouse model assessed as downregulation of Ki67 level in tumor at 20 mg/kg, po administered once daily via gavage for 15 days by immunohistochemical staining based analysis. In kind it is functional, organism-based. To be noted: time 15.0 day.
For series [29], the system named is SU-DHL-6. The series can be described thus: Induction of apoptosis in human SU-DHL-6 cells assessed as early apoptotic cells at 1 uM incubated for 24 hrs by Annexin V-FITC/PI staining based flow cytometric analysis (reference value: 32.1 %). Format: functional.
Series [30] addresses Phosphatidylinositol 4,5-bisphosphate 3-kinase catalytic subunit beta isoform (Homo sapiens, UniProt P42338). The series can be described thus: Inhibition of PI3Kbeta (unknown origin) incubated for 2 hrs in presence of ATP by ADP-kinaseGlo reagent based assay.
Series [31] relates to SUD4. In words: Induction of apoptosis in human SU-DHL-4 cells assessed as late apoptotic cells at 1 uM incubated for 24 hrs by Annexin V-FITC/PI staining based flow cytometric analysis (reference value: 6.74 %). Format: functional.
The subject of series [32] is SU-DHL-6. The series can be described thus: Antitumor activity against human SU-DHL-6 cells xenografted in female BALB/c mouse model assessed as tumor growth inhibition at 20 mg/kg, po administered once daily via gavage for 15 days relative to control. In kind it is functional. To be noted: SU-DHL-6, 360 h, time 15 day, read-out: TGI.
Series [33] deals with Bromodomain-containing protein 3 (Homo sapiens, UniProt Q15059). The series can be described thus: Inhibition of His-tagged BRD3-BD1 (unknown origin) incubated for 30 mins in presence of ATP by Alphascreen assay.
Sequence of Bromodomain-containing protein 3 (Q15059 whole entry): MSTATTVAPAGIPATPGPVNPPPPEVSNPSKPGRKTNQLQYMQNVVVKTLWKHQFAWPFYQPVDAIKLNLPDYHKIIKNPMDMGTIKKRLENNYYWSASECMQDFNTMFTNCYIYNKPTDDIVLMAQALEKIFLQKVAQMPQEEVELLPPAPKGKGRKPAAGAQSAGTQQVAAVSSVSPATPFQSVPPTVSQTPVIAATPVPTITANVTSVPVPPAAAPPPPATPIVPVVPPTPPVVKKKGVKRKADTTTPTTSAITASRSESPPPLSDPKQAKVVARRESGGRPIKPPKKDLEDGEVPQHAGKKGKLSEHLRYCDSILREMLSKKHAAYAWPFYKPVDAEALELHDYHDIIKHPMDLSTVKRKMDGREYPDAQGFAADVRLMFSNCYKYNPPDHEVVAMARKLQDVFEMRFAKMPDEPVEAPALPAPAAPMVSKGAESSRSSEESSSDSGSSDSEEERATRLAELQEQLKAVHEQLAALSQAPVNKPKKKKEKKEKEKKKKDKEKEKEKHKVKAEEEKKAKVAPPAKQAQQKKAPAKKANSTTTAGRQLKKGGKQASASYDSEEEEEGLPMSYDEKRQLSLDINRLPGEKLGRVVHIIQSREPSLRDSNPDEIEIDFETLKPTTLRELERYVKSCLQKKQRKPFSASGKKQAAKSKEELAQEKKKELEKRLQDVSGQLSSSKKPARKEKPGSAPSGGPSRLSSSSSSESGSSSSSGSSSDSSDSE

Sequence of PI3-kinase p110-delta/p85-alpha (P27986 whole entry): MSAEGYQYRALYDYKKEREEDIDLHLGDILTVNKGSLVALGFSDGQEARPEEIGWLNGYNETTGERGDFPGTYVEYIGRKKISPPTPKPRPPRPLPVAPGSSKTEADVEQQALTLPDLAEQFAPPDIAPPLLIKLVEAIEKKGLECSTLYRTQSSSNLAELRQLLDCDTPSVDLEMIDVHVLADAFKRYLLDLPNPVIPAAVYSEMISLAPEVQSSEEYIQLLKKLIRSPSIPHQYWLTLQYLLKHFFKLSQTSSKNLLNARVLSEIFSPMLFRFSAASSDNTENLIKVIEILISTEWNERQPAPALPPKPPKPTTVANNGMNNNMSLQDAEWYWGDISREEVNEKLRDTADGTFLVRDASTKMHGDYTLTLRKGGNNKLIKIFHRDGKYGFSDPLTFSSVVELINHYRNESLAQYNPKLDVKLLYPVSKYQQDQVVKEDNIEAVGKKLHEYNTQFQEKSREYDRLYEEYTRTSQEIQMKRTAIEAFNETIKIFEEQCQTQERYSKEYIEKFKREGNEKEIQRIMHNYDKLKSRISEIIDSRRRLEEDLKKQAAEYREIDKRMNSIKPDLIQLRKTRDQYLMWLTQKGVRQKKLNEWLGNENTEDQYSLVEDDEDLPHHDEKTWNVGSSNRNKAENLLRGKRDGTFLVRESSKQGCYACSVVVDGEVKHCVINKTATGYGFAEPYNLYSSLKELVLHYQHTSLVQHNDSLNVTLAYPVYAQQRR
Sequence of PI3-kinase p110-delta/p85-alpha (O00329 whole entry): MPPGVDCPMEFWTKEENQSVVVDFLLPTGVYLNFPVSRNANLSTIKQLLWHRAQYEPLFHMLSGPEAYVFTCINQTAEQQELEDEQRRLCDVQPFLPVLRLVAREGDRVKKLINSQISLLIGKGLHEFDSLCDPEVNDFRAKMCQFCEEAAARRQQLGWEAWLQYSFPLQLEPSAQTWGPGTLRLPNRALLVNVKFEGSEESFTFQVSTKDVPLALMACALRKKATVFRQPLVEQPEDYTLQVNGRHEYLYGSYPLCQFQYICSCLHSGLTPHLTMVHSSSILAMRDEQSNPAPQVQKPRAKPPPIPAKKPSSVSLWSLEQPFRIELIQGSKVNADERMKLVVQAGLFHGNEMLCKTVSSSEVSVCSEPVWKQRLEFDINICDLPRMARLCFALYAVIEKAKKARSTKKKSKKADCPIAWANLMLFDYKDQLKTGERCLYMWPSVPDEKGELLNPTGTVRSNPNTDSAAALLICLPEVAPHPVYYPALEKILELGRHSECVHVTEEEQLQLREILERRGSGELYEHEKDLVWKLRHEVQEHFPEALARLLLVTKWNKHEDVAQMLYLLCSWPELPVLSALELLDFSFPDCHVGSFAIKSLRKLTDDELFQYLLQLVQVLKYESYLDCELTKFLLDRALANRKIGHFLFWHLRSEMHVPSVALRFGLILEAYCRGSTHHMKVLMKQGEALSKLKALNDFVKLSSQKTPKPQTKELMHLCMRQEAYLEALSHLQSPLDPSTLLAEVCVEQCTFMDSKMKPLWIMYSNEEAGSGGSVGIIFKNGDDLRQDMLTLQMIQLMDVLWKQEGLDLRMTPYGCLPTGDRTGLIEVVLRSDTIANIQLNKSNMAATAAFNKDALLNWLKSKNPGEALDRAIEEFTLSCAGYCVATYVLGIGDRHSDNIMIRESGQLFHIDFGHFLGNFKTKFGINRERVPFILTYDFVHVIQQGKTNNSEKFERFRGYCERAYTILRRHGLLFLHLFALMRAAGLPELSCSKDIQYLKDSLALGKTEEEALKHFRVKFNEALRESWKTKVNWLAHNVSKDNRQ
Sequence of Phosphatidylinositol 4,5-bisphosphate 3-kinase catalytic subunit beta isoform (P42338 whole entry, canonical isoform): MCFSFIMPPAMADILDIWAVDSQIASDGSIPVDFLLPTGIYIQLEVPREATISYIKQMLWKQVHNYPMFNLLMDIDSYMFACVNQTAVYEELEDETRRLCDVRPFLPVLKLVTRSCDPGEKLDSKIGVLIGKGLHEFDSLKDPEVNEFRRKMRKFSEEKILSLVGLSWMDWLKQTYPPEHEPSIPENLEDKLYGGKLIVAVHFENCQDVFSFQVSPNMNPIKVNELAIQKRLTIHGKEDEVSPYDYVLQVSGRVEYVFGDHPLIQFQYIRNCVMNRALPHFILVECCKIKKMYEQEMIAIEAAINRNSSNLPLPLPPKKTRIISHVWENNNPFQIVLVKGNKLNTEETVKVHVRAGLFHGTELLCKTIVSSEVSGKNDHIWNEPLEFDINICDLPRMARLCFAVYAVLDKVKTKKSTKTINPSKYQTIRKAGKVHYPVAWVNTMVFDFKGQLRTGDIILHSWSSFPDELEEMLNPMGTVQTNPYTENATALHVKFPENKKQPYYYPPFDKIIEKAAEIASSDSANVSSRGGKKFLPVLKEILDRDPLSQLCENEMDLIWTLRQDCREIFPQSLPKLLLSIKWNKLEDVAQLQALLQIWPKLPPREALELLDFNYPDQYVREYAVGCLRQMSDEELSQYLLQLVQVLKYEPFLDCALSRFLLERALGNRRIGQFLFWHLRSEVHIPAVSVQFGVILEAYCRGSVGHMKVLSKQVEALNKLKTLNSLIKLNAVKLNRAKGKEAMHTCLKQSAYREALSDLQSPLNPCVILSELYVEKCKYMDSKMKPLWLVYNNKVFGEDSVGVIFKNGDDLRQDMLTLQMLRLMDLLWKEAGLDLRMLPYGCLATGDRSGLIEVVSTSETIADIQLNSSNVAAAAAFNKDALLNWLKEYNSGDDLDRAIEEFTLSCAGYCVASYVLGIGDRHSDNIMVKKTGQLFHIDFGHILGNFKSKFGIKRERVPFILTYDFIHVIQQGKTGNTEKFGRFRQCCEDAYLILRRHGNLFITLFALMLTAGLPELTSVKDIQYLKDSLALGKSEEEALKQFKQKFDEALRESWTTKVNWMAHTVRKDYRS
Sequence of Bromodomain-containing protein 2 (P25440 whole entry): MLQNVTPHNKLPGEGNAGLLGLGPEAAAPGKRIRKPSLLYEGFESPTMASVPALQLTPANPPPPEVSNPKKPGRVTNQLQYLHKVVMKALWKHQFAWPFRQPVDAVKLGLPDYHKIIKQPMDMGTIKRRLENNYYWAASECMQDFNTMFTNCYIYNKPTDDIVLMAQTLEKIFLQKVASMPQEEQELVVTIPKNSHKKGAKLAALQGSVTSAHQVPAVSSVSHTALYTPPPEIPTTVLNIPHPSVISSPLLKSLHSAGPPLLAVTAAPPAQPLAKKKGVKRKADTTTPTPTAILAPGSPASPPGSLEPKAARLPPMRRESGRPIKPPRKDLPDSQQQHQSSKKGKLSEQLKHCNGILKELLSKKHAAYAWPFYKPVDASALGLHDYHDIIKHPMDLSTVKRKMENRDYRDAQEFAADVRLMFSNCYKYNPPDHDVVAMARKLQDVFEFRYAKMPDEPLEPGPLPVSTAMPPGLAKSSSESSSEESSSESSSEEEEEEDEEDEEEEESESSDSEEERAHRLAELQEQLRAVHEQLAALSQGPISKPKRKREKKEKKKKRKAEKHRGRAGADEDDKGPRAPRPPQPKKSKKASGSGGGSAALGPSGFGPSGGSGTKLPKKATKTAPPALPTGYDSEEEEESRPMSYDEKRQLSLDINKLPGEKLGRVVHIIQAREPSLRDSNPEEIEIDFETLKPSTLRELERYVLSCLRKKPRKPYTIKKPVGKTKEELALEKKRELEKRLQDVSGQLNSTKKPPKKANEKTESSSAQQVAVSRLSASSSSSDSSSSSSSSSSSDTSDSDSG

For the compound `Cn1cc(-c2nc(N3CCOCC3)c3sc(CN4CCN(CC5CC5)CC4)cc3n2)c2cn[nH]c2c1=O`, the inhibition in series [1] came to 12.7%; in series [2], 43.5%.
On to `Fc1ccc2[nH]ccc2c1-c1nc(N2CCOCC2)c2sc(CN3CCN(CC4CC4)CC3)cc2n1`, for which the IC50 is 263 nM in series [3]; 1820 nM in series [4]; 10 nM in [5]; 23 nM in series [6]; 14 nM in [7].
As to `O=c1cc(N2CCOCC2)oc2c(-c3ccc4c(c3)OCCO4)csc12`, the IC50 in series [3] was found to be 1880 nM; in series [10] it was 383 nM; in series [13], 1230 nM; in series [4], 518 nM; in [17], 599 nM; in series [19], 235 nM. Besides, the IC50 in [6] came to 158 nM; in series [21], 312 nM; in series [26], 251 nM; in series [30] it was 129 nM; in [33] it was 303 nM. In addition, the Activity entry is given as “Non-toxic” in series [8]; 26.8% in series [11]; “Toxic” in series [12]; “Non-toxic” in [14]; “Toxic” in series [15]; “Non-toxic” in [16]. The Activity is listed as 5.53% in [18]; 0.61% in series [20]; “Non-toxic” in series [22]; 1.05% in [23]; “Non-toxic” in series [25]; “Non-toxic” in [27]. Besides, the Activity entry in series [28] is recorded as “Active; More Effective Than Sf2523”; in series [29], 33.6%; in series [31], 10.4%. Moreover, the viability at 1 µM in [9] amounted to 60.2%; in series [24] it was 61.7%. In addition, the inhibition in vivo at 20 mg/kg in series [32] was found to be 62.3%.
Regarding `Cn1cc(-c2nc(N3CCOCC3)c3sc(CN4CCN(CC5CC5)CC4)cc3n2)c2cc[nH]c2c1=O`, the IC50 came to 220 nM in series [3], 53 nM in [4], 464 nM in series [6] and 7.8 nM in series [21]. The inhibition in [1] was 58.2%; in series [2], 19.5%.
Consider `Cn1cc(-c2nc(N3CCOCC3)c3sc(CN4CCN(CC5CC5)CC4)cc3n2)cc(N)c1=O`, for which the inhibition in series [1] turned out to be 18.1%; in series [2] it was 7.7%.
Taken in the same sequence, the figures for `C[C@H](N)C(=O)N1CCN(Cc2cc3nc(-c4cn(C)c(=O)c5[nH]ccc45)nc(N4CCOCC4)c3s2)CC1` were 59.9% and 19.5%.
The like results for `C[C@@H](N)C(=O)N1CCN(Cc2cc3nc(-c4cn(C)c(=O)c5[nH]ccc45)nc(N4CCOCC4)c3s2)CC1` were, in that order, 56.8% and 16.2%.
Taken in the same sequence, the figures for `CNc1cc(-c2nc(N3CCOCC3)c3sc(CN4CCN(CC5CC5)CC4)cc3n2)cn(C)c1=O` were 9.1% and 6%.
Regarding `CC(=O)N1CCN(Cc2cc3nc(-c4cn(C)c(=O)c5[nH]ccc45)nc(N4CCOCC4)c3s2)CC1`, the IC50 in series [3] worked out at 166 nM; in series [4] it was 79 nM; in series [6], 108 nM; in series [21], 11 nM. Also, the inhibition in [1] was found to be 44.2%; in series [2] it was 46.9%.
For the compound `CC(=O)Nc1cc(-c2nc(N3CCOCC3)c3sc(CN4CCN(CC5CC5)CC4)cc3n2)cn(C)c1=O`, the results for the inhibition in series [1] and in series [2] were 3% and 21.5%, respectively.
As for `Cn1cc(-c2nc(N3CCOCC3)c3sc(CN4CCC(O)CC4)cc3n2)c2cc[nH]c2c1=O`, the inhibition in series [1] came out at 36%; in series [2], 19.4%.
